Reference: article PMC11603058 (Scientific Reports, 2024)
Peptide text beside a SMILES is read from it. * marks the point of attachment. Cbz = O=C(OCc1ccccc1)*; CH2F = FC*

Key:
[1] = target: hERG channel (Homo sapiens, UniProt Q12809); test: Predictor hERG Fluorescence Polarization assay; assay type: binding; details: read-out: hERG channel inhibition (IC50), 0.1-80 μM
[2] = tested on: MIA PaCa-2 cells; test: Viability of AJO14-treated cells in presence of cell death inhibitors; assay type: cell-based, human; details: MIA PaCa-2, 24 h; Z-VAD-FMK (20 µM), Nec-1 (40 µM), or Olaparib (25 μM)
[3] = tested on: MIA PaCa-2 cells; test: Oxygen consumption rate, Seahorse XF; assay type: cell-based, human; details: MIA PaCa-2, 24 h, AJO14 (10 μM) with increasing concentrations of Olaparib

Chain of hERG channel (Q12809 whole entry): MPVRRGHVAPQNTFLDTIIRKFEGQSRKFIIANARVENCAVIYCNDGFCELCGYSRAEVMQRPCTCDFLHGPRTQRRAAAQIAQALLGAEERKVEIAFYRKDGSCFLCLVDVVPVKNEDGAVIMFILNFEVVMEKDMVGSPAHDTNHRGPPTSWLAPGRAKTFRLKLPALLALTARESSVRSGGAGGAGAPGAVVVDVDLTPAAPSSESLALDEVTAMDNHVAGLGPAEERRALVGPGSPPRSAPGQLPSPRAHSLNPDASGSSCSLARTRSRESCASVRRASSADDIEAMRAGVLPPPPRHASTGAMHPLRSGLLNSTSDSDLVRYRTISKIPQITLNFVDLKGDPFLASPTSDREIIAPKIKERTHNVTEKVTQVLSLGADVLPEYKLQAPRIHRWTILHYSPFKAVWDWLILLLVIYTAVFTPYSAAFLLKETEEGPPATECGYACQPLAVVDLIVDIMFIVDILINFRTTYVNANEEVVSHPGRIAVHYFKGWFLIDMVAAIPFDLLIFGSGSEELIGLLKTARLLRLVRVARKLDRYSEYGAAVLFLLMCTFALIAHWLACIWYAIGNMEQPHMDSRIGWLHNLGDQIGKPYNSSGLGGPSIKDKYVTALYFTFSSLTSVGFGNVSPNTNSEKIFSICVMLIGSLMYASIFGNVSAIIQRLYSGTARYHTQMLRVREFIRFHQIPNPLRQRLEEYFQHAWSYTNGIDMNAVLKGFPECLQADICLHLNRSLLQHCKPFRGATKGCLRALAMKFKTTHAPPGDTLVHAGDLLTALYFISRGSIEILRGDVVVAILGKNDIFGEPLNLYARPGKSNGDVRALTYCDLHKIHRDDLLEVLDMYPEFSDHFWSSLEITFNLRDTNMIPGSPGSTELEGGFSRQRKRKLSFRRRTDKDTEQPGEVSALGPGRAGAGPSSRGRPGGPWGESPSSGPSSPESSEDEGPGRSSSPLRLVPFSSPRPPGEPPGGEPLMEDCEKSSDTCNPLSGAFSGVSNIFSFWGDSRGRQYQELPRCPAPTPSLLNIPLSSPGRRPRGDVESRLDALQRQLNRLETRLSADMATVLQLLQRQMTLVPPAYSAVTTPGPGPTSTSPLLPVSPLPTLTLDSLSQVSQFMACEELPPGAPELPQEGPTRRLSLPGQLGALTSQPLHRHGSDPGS

Structure (SMILES)	IC50 [1] [nM]	effect of pretreatment on cell viability of cells treated with AJO14 [2]	effect on mitochondrial metabolism failure (OCR) caused by AJO14 [3]
CN(C)CCN1CCN(CCCN2c3ccccc3Sc3ccc(C(F)(F)F)cc32)CC1 [ZZW-115]	2000	–	–
CN1C(=O)C(Cc2c[nH]c3ccccc23)NC1=S (centres unmarked) [Necrostatin]	–	partially improved the cell viability	–
COC(=O)C[C@H](NC(=O)[C@H](C)NC(=O)[C@@H](NC(=O)OCc1ccccc1)C(C)C)C(=O)CF [Z-VAD-FMK] (Cbz-Val-Ala-Asp(OMe)-CH2F)	–	partially improved the cell viability	–
O=C(c1cc(Cc2n[nH]c(=O)c3ccccc23)ccc1F)N1CCN(C(=O)C2CC2)CC1 [Olaparib]	–	partially improved the cell viability	could reverse the strong mitochondrial metabolism failure caused by AJO14
